Where a SMILES comes first, the peptide text is derived from it. [ ]: non-standard residue; d: D form. Nle = CCCC[C@H](N)C(=O)O
Tests used:
Assay type in all cases: cell-based
[1] = tested on: nuclear PK-M2 processing in Cos-7 cells; assay: protease inhibitor pre-treatment, electrophoretic mobility of nuclear PK-M2; conditions: Cos-7 cells pre-treated with protease inhibitor
[2] = biological target: T1, pEGFP-PK-M2 (pyruvate-kinase fused to GFP) in Cos-7 cells (Homo sapiens, UniProt P14618); assay: nuclear translocation of GFP-fused pyruvate-kinase in transiently transfected Cos-7 cells; conditions: pEGFP-PK-M2, 1 mM hydrogen peroxide for 4 hours, FIG. 4
T1 construct: producing wild type pyruvate-kinase N-terminally fused to GFP; expressed in transfected cells; host or cells: Cos-7
T1 sequence (P14618 whole entry, the tested form may be a part): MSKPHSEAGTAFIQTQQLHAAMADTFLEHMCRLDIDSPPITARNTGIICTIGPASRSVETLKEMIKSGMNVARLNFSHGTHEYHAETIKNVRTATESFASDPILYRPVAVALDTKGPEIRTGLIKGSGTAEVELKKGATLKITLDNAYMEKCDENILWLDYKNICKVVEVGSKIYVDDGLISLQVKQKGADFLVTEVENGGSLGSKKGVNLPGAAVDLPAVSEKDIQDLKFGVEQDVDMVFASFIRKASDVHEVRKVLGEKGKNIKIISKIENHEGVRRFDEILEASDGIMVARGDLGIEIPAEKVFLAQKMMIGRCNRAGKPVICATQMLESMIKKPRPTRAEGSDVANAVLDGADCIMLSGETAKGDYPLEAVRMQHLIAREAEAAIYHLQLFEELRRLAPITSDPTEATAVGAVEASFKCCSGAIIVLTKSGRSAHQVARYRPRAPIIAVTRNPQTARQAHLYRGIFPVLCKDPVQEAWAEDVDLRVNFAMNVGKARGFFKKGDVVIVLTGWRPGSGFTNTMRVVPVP
Excerpt: Nuclear translocation of the pyruvate-kinase upon different apoptotic stimuli. Cos-7 cells were transiently transfected with pEGFP-PK-M2 eukaryotic expression plasmid (producing wild type pyruvate-kinase N-terminally fused to GFP)
Nuclear translocation of the pyruvate-kinase deletion mutants upon apoptotic stimuli. […] (Ex: 485 nm=GFP, Ex: 390=propidium-iodide)
Cells were fixed with 1% glutaraldehyde and the localisation of GFP was detected and analysed with fluorescent microscope and InoVision confocal imaging software. Nuclei were stained with propidium-iodine (FIG. 5).

[3] = tested on: endogenous PK-M2 in Cos-7 cells; assay: subcellular localisation of endogenous PK-M2, cytosolic/nuclear fractions, Western-blot; conditions: 50 μM TT-232 or 100 μM hydrogen-peroxide, FIG. 8
Description: Subcellular localisation of endogenous PK-M2 upon peroxide or UV stimulation. Cos-7 cells were untreated, treated with 50 μM TT-232 (A), 100 μM hydrogen-peroxide (B), or 120 mJ/cm^2 UV (C) and incubated for different times as indicated. Cells were separated into cytosolic (c) or nuclear (n) fractions loaded in triplicate and blotted with PK-M2 (uppest panels), Erk-2 (middle panels) or Histone H1 (lowest panels).
In order investigate further Cos-7 cells were treated, separated into cytosolic and nuclear fractions by NP-40 lysis and analysed with polyclonal PKM2 specific antibody (Weernink et al., 1988) for endogenous PK-M2 by Western-blots. To rule out cross contamination, samples were loaded in triplicate and blotted with PK-M2, Erk-2 or Histone H1 antibodies.

| Structure (SMILES) | reversal of increased electrophoretic mobility of nuclear enzyme [1] | nuclear translocation of GFP-fused pyruvate-kinase [2] | translocation of endogenous PK-M2 into the nucleus [3] |
| --- | --- | --- | --- |
| NCCc1ccc(S(=O)(=O)F)cc1 [AEBSF] | not able to revert this effect | – | – |
| CCCC[C@@H](C=O)NC(=O)[C@H](CC(C)C)NC(=O)[C@H](CC(C)C)NC(C)=O [ALLN] (Ac-Leu-Leu-[Nle]-aldehyde) | not able to revert this effect | – | – |
| Cc1ccc(S(=O)(=O)N[C@@H](Cc2ccccc2)C(=O)CCl)cc1 [TPCK] | not able to revert this effect | – | – |
| OO [hydrogen peroxide] | – | nuclear translocation of the pyruvate-kinase occurs | induced the translocation of the endogenous PK-M2 into the nucleus |
